Test results published in BigSolDB 2.1.

Cc1c(N)c(=O)n(-c2ccccc2)n1C
solubility (mole fraction)
Conditions | in acetone | in ethanol | in ethyl acetate | in isopropanol | in methanol | in n-butanol | in n-propanol | in sec-butanol | in water
299.05 K | 0.37 | 0.22 | 0.08 | 0.19 | 0.23 | 0.15 | 0.21 | 0.14 | 0.13
303.15 K | 0.4 | 0.25 | 0.09 | 0.22 | 0.25 | 0.17 | 0.24 | 0.16 | 0.15
307.25 K | 0.43 | 0.28 | 0.11 | 0.25 | 0.28 | 0.19 | 0.28 | 0.18 | 0.17
311.05 K | 0.44 | 0.31 | 0.13 | 0.29 | 0.31 | 0.21 | 0.31 | 0.2 | 0.19
315.15 K | 0.47 | 0.35 | 0.15 | 0.32 | 0.34 | 0.24 | 0.35 | 0.23 | 0.22
321.05 K | 0.52 | 0.41 | 0.2 | 0.38 | 0.39 | 0.29 | 0.41 | 0.27 | 0.27
327.15 K | 0.55 | 0.48 | 0.25 | 0.45 | 0.44 | 0.34 | 0.46 | 0.31 | 0.33
338.35 K | 0.62 | 0.6 | 0.36 | 0.57 | 0.57 | 0.46 | 0.59 | 0.41 | 0.44
